Entries after “also recorded” stand apart in the source; their conditions may differ.

Assay [1] has as its system SpA surface display on S. aureus Newman. Put plainly: Immunofluorescence microscopy of SpA surface display. The conditions noted are these: 8 × IC50 (111.52 μM). The class given is cell-based, Staphylococcus aureus. The procedure:
Figure 5 Fluorescence microscopy images of SpA surface display. […] BF identifies the bright-field microscopy view of fluorescence microscopy images. Scale bar, […].
The surface display of SpA was visualized following established procedures. A solution of 0.01% poly-L-lysine (Sigma-Aldrich) was added to each well of an 8-well glass chamber slide (SPL) and incubated at 25 °C for 5 min to coat the slide. After washing each well with distilled water and ensuring complete drying, 1 mL of cells, prepared as described above for the re-expression of the cell surface protein, was suspended in PBS containing 0.05% Tween 80 (PBST) and was thoroughly vortexed. A total of 250 μL of suspension was removed and incubated at 25 °C for 20 min with 250 μL of PBS (2.4% paraformaldehyde, 0.006% glutaraldehyde, and 0.05% Tween 80). The fixed cells were washed twice with PBST, and 150 μL of cells were added to the coated slide and incubated at 25 °C for 5 min. […] After washing seven times, anti-fade fluorescence mounting medium (Abcam, Cambridge, UK) was added. […] Images were captured using AiryScan fluorescence detectors and a transmitted light detector (T-PMT) under 10× scan zoom, bidirectional scan, 4× averaging. All the images were analyzed in ZEN 2.1 software (Carl Zeiss).

The subject of assay [2] is srtA and spa mRNA expression in S. aureus Newman. Put plainly: Semiquantitative reverse transcription PCR of srtA and spa mRNA. The class given is cell-based, Staphylococcus aureus. From the text: To ascertain whether halenaquinol inhibits the transcription of srtA or blocks its function at an enzyme level without affecting the expression of the srtA gene, the mRNA expression level of srtA in response to various concentrations and exposure times of halenaquinol was initially explored using semi-quantitative reverse transcription PCR (RT-PCR). Total RNA isolated from S. aureus Newman was transcribed into cDNA, and it was used as a template to amplify the target genes. A time-course analysis assessed the impact of halenaquinol on srtA expression at different intervals from 0 to 60 min. […] Furthermore, the expression level of srtA was analyzed after 40 min of incubation at various concentrations of halenaquinol.
Figure 3 Effect of SrtA inhibitors on srtA and spa mRNA expression. S. aureus Newman cells were incubated in the presence of halenaquinol and quercetin. mRNA expression levels of cells were examined using semiquantitative RT-PCR. (A) The time courses of mRNA expression of gyrB and srtA were monitored. Total RNA was isolated from cells grown in medium containing 0.2% dimethyl sulfoxide (DMSO, negative control), halenaquinol or quercetin (positive control). (B) Cells were grown in medium containing the indicated concentrations of halenaquinol or quercetin. The gyrB gene was used as a loading control.
The S. aureus Newman strain was inoculated into 5 mL of trypticase soy broth (TSB) and incubated overnight at 37 °C with shaking. Cultures were diluted 1:100 into TSB and grown until the OD600 reached approximately 0.3. Cultures (5 mL) were aliquoted, and the test compound was added with less than 0.2% DMSO. The negative control group was treated with DMSO only. Cultures were then incubated at 37 °C with shaking and harvested at specific incubation times. Then, 1 mL of each culture was centrifuged, and the pellet was stored at −80 °C. RNA was isolated using the easy-BLUE total RNA extraction kit (iNtRON Biotechnology, Boston, MA, USA). […]

Turning to `C[C@@]12CCC(=O)c3coc(c31)C(=O)c1cc3c(O)ccc(O)c3cc12` [Compound 2, halenaquinol], in assay [1], the “SpA surface display / inhibition of SpA anchoring” value is recorded as “comparable to those for an srtA-deletion mutant; also recorded: significantly reduced”. The “inhibition of the transcription of srtA and spA” value in assay [2] (S. aureus Newman, semi-quantitative RT-PCR) is reported as “does not inhibit”. The “PCR band intensity representing mRNA expression of srtA and spa” value in assay [2] (after 40 min of incubation, increasing concentrations) was “slightly increased”. Moreover, in assay [2] (time course 0 to 60 min, gyrB consistent), the “PCR band intensity representing srtA mRNA expression” value is reported as “increased over time”.

The record behind these values is publication PMC11204543, “Halenaquinol Blocks Staphylococcal Protein A Anchoring on Cell Wall Surface by Inhibiting Sortase A in Staphylococcus aureus” (Marine Drugs, 2024).
